The values below come from ChEMBL document CHEMBL4431326, “Tumor Targeting with Novel 6-Substituted Pyrrolo [2,3-d] Pyrimidine Antifolates with Heteroatom Bridge Substitutions via Cellular Uptake by Folate Receptor α and the Proton-Coupled Folate Transporter and Inhibition of de Novo Purine Nucleotide Biosynthesis” (J Med Chem, 2016).

Activity calls are given as the source filed them. No cut-off for these calls is given here.

In test [1] the target is T1, Proton-coupled folate transporter (Homo sapiens, UniProt Q96NT5).
T1 sequence (Q96NT5 whole entry): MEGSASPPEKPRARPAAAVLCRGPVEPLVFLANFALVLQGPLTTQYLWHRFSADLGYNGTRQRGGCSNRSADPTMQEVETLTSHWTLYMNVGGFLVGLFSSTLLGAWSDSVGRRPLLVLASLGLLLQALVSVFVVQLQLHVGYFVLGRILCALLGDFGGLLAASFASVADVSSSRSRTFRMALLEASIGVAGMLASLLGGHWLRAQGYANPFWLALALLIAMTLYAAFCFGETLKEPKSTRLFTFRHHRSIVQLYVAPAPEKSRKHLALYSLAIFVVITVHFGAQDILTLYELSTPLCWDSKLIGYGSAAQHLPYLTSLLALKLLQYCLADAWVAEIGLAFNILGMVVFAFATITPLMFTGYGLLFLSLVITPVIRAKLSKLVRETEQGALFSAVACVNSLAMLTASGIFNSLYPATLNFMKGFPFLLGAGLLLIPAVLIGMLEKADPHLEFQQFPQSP
Briefly: Inhibition of [3H]MTX uptake at human PCFT expressed in Chinese hamster R2/PCFT4 cells at pH 5.5 measured after 5 mins by Dixon plot analysis. Format: cell-based.

Test [2] has as its system KB. The test can be described thus: Antiproliferative activity against human KB cells expressing human RFC/FR-alpha/PCFT assessed as reduction in cell viability measured after 96 hrs in presence of folic acid by Cell-Titer Blue fluorescence analysis. Format: functional, cell-based.
Test [3] deals with T2, Proton-coupled folate transporter (Homo sapiens) (UniProt Q96NT5).
T2 sequence (whole entry): T1 sequence (Q96NT5 whole entry)
Briefly: Inhibition of [3H]MTX uptake at human PCFT expressed in Chinese hamster R2/PCFT4 cells at 1 uM and pH 5.5 measured after 5 mins. Format: cell-based.

In test [4] the target is T2, Proton-coupled folate transporter (Homo sapiens). The test can be described thus: Inhibition of [3H]MTX uptake at human PCFT expressed in Chinese hamster R2/PCFT4 cells at 10 uM and pH 6.8 measured after 5 mins. Format: cell-based.
The target of test [5] is T3, Trifunctional purine biosynthetic protein adenosine-3 (Homo sapiens, UniProt P22102).
T3 sequence (P22102 whole entry): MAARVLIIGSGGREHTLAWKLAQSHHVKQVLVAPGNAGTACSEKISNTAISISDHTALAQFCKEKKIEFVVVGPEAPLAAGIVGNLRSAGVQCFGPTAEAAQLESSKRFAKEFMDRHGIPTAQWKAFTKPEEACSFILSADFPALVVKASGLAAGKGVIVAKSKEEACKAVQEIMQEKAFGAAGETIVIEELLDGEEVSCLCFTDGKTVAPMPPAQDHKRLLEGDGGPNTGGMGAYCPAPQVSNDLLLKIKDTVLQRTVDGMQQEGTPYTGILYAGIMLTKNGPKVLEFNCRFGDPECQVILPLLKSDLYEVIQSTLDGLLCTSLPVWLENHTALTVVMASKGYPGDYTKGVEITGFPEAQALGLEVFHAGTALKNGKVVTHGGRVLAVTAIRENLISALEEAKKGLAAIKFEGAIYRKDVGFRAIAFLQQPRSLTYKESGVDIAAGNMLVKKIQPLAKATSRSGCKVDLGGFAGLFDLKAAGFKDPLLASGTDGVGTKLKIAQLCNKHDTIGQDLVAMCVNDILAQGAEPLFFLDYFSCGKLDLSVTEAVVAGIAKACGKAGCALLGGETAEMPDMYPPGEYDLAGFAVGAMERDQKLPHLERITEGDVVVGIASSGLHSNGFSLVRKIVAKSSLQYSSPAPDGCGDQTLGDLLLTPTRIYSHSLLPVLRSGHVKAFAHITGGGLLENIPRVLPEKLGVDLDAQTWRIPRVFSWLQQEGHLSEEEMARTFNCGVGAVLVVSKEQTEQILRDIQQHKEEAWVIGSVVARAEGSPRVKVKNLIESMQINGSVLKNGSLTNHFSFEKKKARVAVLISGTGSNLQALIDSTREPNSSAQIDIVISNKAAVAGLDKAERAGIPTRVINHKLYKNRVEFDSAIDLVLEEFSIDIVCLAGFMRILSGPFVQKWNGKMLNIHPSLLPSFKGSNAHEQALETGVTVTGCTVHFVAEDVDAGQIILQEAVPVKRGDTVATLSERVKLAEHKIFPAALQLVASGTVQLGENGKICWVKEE
The test can be described thus: Inhibition of GARFTase in human KB cells expressing RFC/FR-alpha/PCFT assessed as decrease in incorporation of [14C(U)]-glycine into [14C]formyl GAR incubated for 1 hr followed by addition of [14C(U)]-glycine measured after 16 hrs in presence of azaserine. Format: cell-based.

For test [6], the system named is KB. Briefly: Antiproliferative activity against human KB cells expressing human RFC/FR-alpha/PCFT assessed as reduction in cell viability measured after 96 hrs by Cell-Titer Blue fluorescence analysis. Format: functional, cell-based.
The target in test [7] is Folate receptor beta (Homo sapiens) (UniProt P14207). The test can be described thus: Displacement of [3H]folic acid from human FR-beta receptor expressed in Chinese hamster D4 cells measured after 15 mins relative to folic acid. Format: cell-based.
Chain of Folate receptor beta (Homo sapiens) (P14207 17-230 limits assumed): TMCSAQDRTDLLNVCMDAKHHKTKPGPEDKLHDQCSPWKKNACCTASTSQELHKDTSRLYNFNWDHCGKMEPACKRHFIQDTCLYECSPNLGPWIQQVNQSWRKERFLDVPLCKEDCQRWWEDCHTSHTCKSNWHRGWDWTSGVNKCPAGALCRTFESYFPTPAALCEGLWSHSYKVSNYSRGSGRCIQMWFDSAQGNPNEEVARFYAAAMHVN
Test [8] has as its target Bifunctional purine biosynthesis protein ATIC (Homo sapiens) (UniProt P31939). Briefly: Inhibition of AICARFTase in human KB cells expressing RFC/FR-alpha/PCFT assessed as cell growth inhibition measured after 96 hrs in presence of 320 uM AICA by Cell-Titer Blue fluorescence analysis. Format: cell-based.
Test [9] concerns the target T4, GAR transformylase/AICAR transformylase (Homo sapiens) (UniProt P31939+P22102). The test can be described thus: Inhibition of GARFTase/AICARFTase in human KB cells expressing RFC/FR-alpha/PCFT assessed as cell growth inhibition measured after 96 hrs in presence of 10 uM thymidine by Cell-Titer Blue fluorescence analysis. Format: cell-based.
Test [10] is described as follows: Cytotoxicity in RFC-null Chinese hamster R2 cells assessed as reduction in cell viability measured after 96 hrs by Cell-Titer Blue fluorescence analysis. Format: cell-based. The following applies: Cricetulus griseus, R2, 96 h.
Test [11] has as its target Folate receptor alpha (Homo sapiens) (UniProt P15328). Briefly: Displacement of [3H]folic acid from human FR-alpha receptor expressed in Chinese hamster RT16 cells measured after 15 mins relative to folic acid. Format: cell-based. The arrangement: concentration or dose not given beside the values.
The target of test [12] is T2, Proton-coupled folate transporter (Homo sapiens). The test can be described thus: Inhibition of [3H]MTX uptake at human PCFT expressed in Chinese hamster R2/PCFT4 cells at 10 uM and pH 5.5 measured after 5 mins. Format: cell-based.
Test [13] in a line: Cytotoxicity in PCFT-null Chinese hamster R2 cells assessed as reduction in cell viability measured after 96 hrs by Cell-Titer Blue fluorescence analysis. The following applies: Cricetulus griseus, R2, 96 h. Format: cell-based.
For test [14], the target named is T3, Trifunctional purine biosynthetic protein adenosine-3. Briefly: Inhibition of recombinant N-terminal 6His-tagged human GARFTase assessed as formation of 5,8-dideazafolate from 10-formyl-5,8-dideazafolic acid measured at every 15 seconds over 20 min by spectrophotometric analysis.
Test [15] addresses T4, GAR transformylase/AICAR transformylase (Homo sapiens). The test can be described thus: Inhibition of GARFTase/AICARFTase in human KB cells expressing RFC/FR-alpha/PCFT assessed as cell growth inhibition measured after 96 hrs in presence of 60 uM adenosine by Cell-Titer Blue fluorescence analysis. Format: cell-based.
The next test relates to IGROV-1. The test can be described thus: Antiproliferative activity against human IGROV1 cells expressing human FR-alpha/PCFT assessed as reduction in cell viability measured after 96 hrs in presence of folic acid by Cell-Titer Blue fluorescence analysis. Format: functional, cell-based. The following applies: IGROV-1, 96 h.

Chain of Bifunctional purine biosynthesis protein ATIC (Homo sapiens) (P31939 whole entry, looked up): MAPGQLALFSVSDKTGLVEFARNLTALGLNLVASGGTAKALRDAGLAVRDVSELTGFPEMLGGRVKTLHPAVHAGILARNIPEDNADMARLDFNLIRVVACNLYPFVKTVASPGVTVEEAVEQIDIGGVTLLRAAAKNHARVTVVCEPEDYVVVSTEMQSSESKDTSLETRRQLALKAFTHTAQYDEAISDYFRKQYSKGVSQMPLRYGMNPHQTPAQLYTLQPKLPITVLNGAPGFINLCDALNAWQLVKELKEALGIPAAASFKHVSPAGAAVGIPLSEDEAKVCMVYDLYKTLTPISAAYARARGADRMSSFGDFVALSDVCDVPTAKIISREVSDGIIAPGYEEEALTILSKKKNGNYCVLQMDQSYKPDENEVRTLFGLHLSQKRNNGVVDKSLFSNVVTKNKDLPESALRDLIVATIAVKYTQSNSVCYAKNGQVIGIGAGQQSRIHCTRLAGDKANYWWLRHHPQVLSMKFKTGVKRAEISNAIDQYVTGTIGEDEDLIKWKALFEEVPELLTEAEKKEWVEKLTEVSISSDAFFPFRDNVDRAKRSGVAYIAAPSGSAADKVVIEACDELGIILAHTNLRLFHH
T4 sequence (P31939 whole entry, looked up, one chain of several): as the sequence (P31939 whole entry, looked up) above
Chain of Folate receptor alpha (Homo sapiens) (P15328 25-234 limits assumed): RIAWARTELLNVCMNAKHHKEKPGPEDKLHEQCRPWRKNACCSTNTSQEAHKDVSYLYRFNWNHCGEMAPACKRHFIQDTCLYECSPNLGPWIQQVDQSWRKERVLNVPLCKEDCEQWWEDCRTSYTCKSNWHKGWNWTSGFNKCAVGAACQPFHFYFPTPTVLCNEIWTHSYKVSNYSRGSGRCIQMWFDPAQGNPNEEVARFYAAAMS

As to `Nc1nc2[nH]c(CCOc3ccc(C(=O)N[C@@H](CCC(=O)O)C(=O)O)cc3)cc2c(=O)[nH]1`, the Ki (commonly the equilibrium dissociation constant of an inhibitor or competing ligand from its target) amounted to 0.64 µM in test [1] and 0.061 µM in test [14]. In addition, the IC50 (in general, the midpoint of a concentration-inhibition curve) is 0.704 µM in the test with KB [2]; 0.00662 µM in test [5]; 0.00034 µM with KB [6]; 0.94 µM in test [10]; above 1 µM in test [13]. In addition, the inhibition (as a rule, the drop in the measured response relative to a control, in per cent) is 30 to 60% in test [3]; 40 to 60% in [4]; 60 to 110% in test [7]; 60 to 110% in test [11]; 80 to 90% in test [12]. Besides, the inhibition entry in test [8] and in test [9] was “Active” throughout. The inhibition result in [15] was “inactive”.

As for `Nc1nc2[nH]c(CCSc3ccc(C(=O)N[C@@H](CCC(=O)O)C(=O)O)cc3)cc2c(=O)[nH]1`, the Ki stood at 1.48 µM in test [1] and 0.201 µM in [14]. In addition, the IC50 with KB [2] is above 1 µM; in test [5], 0.00525 µM; in the test with KB [6] it was 0.00166 µM; in [10] it was above 1 µM; in test [13], above 1 µM. Besides, the inhibition in test [3] was in the range of 30 to 60%; in test [7], 60 to 110%; in test [11] it was 60 to 110%; in [12], 80 to 90%. In addition, the inhibition result in test [4], in test [8] and in test [9] was “Active” in each case. Besides, in test [15], the inhibition entry is “inactive”.

`Nc1nc2[nH]c(CCCc3ccc(C(=O)N[C@@H](CCC(=O)O)C(=O)O)cc3)cc2c(=O)[nH]1` showed a Ki in [1] of 0.22 µM. Further, the inhibition result in test [3] and in [12] was “Active” each time. For the same molecule, the inhibition in test [4] lay within 40 to 60%. For the same molecule, the IC50 with IGROV-1 is above 1 µM.

Take `CC(=O)N(CCc1cc2c(=O)[nH]c(N)nc2[nH]1)c1ccc(C(=O)N[C@@H](CCC(=O)O)C(=O)O)cc1`: the Ki in test [1] turned out to be 1.68 µM; in test [14], 0.062 µM. Besides, the IC50 is above 1 µM in the test with KB [2]; 0.00558 µM in test [5]; 0.00257 µM with KB [6]; above 1 µM in [10]; above 1 µM in test [13]. Also, the results for the inhibition in test [3], in test [11] and in test [12] were 30 to 60%, below 15% and 80 to 90%, respectively. The inhibition entry in [4], in test [8] and in test [9] was “Active” each time. Besides, the inhibition result in test [15] was “inactive”.

Take `Nc1nc2[nH]c(CCN(C=O)c3ccc(C(=O)N[C@@H](CCC(=O)O)C(=O)O)cc3)cc2c(=O)[nH]1`: the values for the Ki in test [1] and in test [14] were 0.73 µM and 0.099 µM, respectively. In addition, the IC50 in the test with KB [2] was above 1 µM; in test [5], 0.00211 µM; with KB [6], 0.00209 µM; in test [10] it was above 1 µM; in test [13], above 1 µM. Besides, the inhibition is 30 to 60% in test [3], below 15% in [11] and 80 to 90% in [12]. The inhibition entry in test [4], in test [8] and in test [9] was “Active” each time. The inhibition entry in test [15] was “inactive”.

As for `Nc1nc2[nH]c(CCN(C(=O)C(F)(F)F)c3ccc(C(=O)N[C@@H](CCC(=O)O)C(=O)O)cc3)cc2c(=O)[nH]1`, the Ki in test [1] was found to be 0.8 µM; in test [14], 0.122 µM. Besides, the IC50 in the test on KB [2] was 0.924 µM; in [5], 0.00495 µM; with KB [6], 0.00056 µM; in test [10], above 1 µM; in test [13] it was above 1 µM. The inhibition in test [3] was 30 to 60%; in test [4], 40 to 60%; in test [11], below 15%; in test [12] it was 80 to 90%. In addition, the inhibition result in test [8] and in test [9] was “Active” each time. Moreover, the inhibition entry in test [15] is “inactive”.
